From patent US11254686B1 (Corvus Pharmaceuticals, Inc., priority 2017, dated 2022)
pIC50: −log10 of the molar value.

Key:
adenosine A2B receptor = adenosine A2B receptor (Homo sapiens (Human), UniProt P29275); assay: Adenosine receptor activity assay (Table 1), A2B activity; assay type: biochemical; conditions: for Ratio: A2A activity to A2B activity (A2A/A2B); for pIC50: read-out: Ave A2B cAMP IC50
adenosine A2A receptor = adenosine A2A receptor (Homo sapiens (Human), UniProt P29274); assay: Adenosine receptor activity assay (Table 1), A2A activity; assay type: biochemical; conditions: read-out: Ave A2A cAMP IC50
adenosine A1 receptor = adenosine A1 receptor (Homo sapiens (Human), UniProt P30542); assay: A1 cAMP IC50 assay (Table 1); assay type: biochemical
adenosine A3 receptor = adenosine A3 receptor (Homo sapiens (Human), UniProt P0DMS8); assay: A3 cAMP IC50 assay (Table 1); assay type: biochemical
[1] = Hepatocyte (Hep) intrinsic clearance, rat; assay type: in vitro ADME; conditions: hepatocytes
[2] = Hepatocyte (Hep) intrinsic clearance, human; assay type: in vitro ADME; conditions: hepatocytes

Sequence of adenosine A1 receptor (P30542 whole entry): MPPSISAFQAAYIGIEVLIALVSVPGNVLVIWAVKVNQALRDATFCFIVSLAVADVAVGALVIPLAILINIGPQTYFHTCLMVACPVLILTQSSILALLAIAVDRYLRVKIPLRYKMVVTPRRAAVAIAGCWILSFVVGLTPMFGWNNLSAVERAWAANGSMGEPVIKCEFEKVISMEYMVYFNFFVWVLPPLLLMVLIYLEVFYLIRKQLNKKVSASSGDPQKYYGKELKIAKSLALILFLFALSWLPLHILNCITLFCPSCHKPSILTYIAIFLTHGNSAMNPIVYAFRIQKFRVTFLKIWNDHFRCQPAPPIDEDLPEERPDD
Sequence of adenosine A2B receptor (P29275 whole entry): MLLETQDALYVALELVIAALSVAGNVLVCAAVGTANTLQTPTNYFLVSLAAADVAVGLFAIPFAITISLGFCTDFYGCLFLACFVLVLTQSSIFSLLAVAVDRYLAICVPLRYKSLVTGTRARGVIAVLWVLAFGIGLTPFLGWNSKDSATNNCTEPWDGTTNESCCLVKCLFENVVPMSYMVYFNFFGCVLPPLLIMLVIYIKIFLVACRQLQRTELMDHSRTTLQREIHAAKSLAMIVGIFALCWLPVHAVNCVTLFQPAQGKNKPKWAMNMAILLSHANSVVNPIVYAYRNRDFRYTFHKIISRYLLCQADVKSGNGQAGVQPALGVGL
Sequence of adenosine A2A receptor (P29274 whole entry): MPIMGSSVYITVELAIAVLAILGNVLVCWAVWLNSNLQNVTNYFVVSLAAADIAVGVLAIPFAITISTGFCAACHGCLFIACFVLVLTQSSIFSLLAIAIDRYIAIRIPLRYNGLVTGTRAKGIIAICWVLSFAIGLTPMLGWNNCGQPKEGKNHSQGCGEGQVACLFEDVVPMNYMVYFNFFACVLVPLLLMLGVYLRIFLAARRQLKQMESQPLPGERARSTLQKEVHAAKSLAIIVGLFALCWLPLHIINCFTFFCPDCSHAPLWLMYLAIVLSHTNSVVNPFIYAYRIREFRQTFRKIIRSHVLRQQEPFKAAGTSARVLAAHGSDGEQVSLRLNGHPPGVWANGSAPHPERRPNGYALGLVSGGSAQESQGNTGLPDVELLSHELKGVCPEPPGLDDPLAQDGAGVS
Sequence of adenosine A3 receptor (P0DMS8 whole entry): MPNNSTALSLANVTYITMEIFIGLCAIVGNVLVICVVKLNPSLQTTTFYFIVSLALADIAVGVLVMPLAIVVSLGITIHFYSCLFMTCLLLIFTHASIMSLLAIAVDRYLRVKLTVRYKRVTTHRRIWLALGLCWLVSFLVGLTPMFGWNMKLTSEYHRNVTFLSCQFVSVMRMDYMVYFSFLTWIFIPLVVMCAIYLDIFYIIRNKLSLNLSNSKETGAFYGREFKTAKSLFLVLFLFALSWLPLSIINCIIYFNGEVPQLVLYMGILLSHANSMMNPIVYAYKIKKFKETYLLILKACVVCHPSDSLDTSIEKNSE

| Compound | Ratio (adenosine A2B receptor) | pIC50 (adenosine A2B receptor) | pIC50 (adenosine A2A receptor) | pIC50 (adenosine A1 receptor) | pIC50 (adenosine A3 receptor) | hepatocyte CLint [1] | hepatocyte CLint [2] |
| --- | --- | --- | --- | --- | --- | --- | --- |
| C[C@H](Nc1nc(C(=O)N2CC(O)C2)c2sccc2n1)c1cccnc1 [Example Z138, (S)-(3-Hydroxyazetidin-1-yl)(2-((1-(pyridin-3-yl)ethyl)amino)thieno[3,2-d]pyrimidin-4-yl)methanone] | 14.05 | 7.30 to 8.00 | 6.30 to 7.00 | < 6.30 | < 6.30 | 10.3 µL/min/1e6 cells | 1.14 µL/min/1e6 cells |
| COC1CN(C(=O)c2nc(N[C@@H](C)c3cncc(F)c3)nc3ccsc23)C1 [Example Z185, (S)-(2-((1-(5-Fluoropyridin-3-yl)ethyl)amino)thieno[3,2-d]pyrimidin-4-yl)(3-methoxyazetidin-1-yl)methanone] | 46.14 | > 8.00 | 6.30 to 7.00 | < 6.30 | < 6.30 | 37 µL/min/1e6 cells | 12 µL/min/1e6 cells |
| O=C(NC1CC(O)C1)c1nc(NCc2cncc(F)c2)nc2ccsc12 (stereo not shown) [Example Z183, 2-(((5-Fluoropyridin-3-yl)methyl)amino)-N-((1s,3s)-3-hydroxycyclobutyl)thieno[3,2-d]pyrimidine-4-carboxamide] | 37.09 | > 8.00 | 6.30 to 7.00 | < 6.30 | < 6.30 | 23.7 µL/min/1e6 cells | 24.9 µL/min/1e6 cells |
| CNc1cc2nc(N[C@@H](C)c3cccnc3)nc(C(=O)N3CC[C@H](O)C3)c2s1 [Example Z188, ((S)-3-Hydroxypyrrolidin-1-yl)(6-(methylamino)-2-(((S)-1-(pyridin-3-yl)ethyl)amino)thieno[3,2-d]pyrimidin-4-yl)methanone] | 114.79 | 7.30 to 8.00 | < 6.30 | < 6.30 | < 6.30 | 10 µL/min/1e6 cells | 2.16 µL/min/1e6 cells |
| C[C@H](Nc1nc(C(=O)NC[C@@H](C)O)c2sccc2n1)c1cncc(F)c1 [Example Z190, 2-(((S)-1-(5-Fluoropyridin-3-yl)ethyl)amino)-N—((R)-2-hydroxypropyl)thieno[3,2-d]pyrimidine-4-carboxamide] | 34.96 | > 8.00 | 7.00 to 7.30 | < 6.30 | < 6.30 | 23.7 µL/min/1e6 cells | 10.1 µL/min/1e6 cells |
| C[C@H](Nc1nc(C(=O)NC2CCC2)c2sccc2n1)c1ccccn1 [Example Z147, (S)—N-Cyclobutyl-2-((1-(pyridin-2-yl)ethyl)amino)thieno[3,2-d]pyrimidine-4-carboxamide] | 2.82 | > 8.00 | 7.30 to 8.00 | < 6.30 | 6.30 to 7.00 | 68.3 µL/min/1e6 cells | 43.5 µL/min/1e6 cells |
| C[C@H](Nc1nc(C(=O)N2CC[C@@H](O)C2)c2sccc2n1)c1cncc(F)c1 [Example Z166, (2-(((S)-1-(5-Fluoropyridin-3-yl)ethyl)amino)thieno[3,2-d]pyrimidin-4-yl)((R)-3-hydroxypyrrolidin-1-yl)methanone] | 62.32 | 7.30 to 8.00 | < 6.30 | < 6.30 | < 6.30 | 16.6 µL/min/1e6 cells | 4.51 µL/min/1e6 cells |
| C[C@H](O)CNC(=O)c1nc(N[C@@H](C)c2cncc(F)c2)nc2ccsc12 [Example Z191, 2-(((S)-1-(5-Fluoropyridin-3-yl)ethyl)amino)-N—((S)-2-hydroxypropyl)thieno[3,2-d]pyrimidine-4-carboxamide] | 45.25 | > 8.00 | 6.30 to 7.00 | < 6.30 | < 6.30 | 26.7 µL/min/1e6 cells | 10.6 µL/min/1e6 cells |
| C[C@H](Nc1nc(C(=O)NCCO)c2sccc2n1)c1cccnc1 [Example Z145, (S)—N-(2-Hydroxyethyl)-2-((1-(pyridin-3-yl)ethyl)amino)thieno[3,2-d]pyrimidine-4-carboxamide] |  | 7.30 to 8.00 | 6.30 to 7.00 |  |  | 8.46 µL/min/1e6 cells | 1.92 µL/min/1e6 cells |
| N#Cc1cncc(CNc2nc(C(=O)N3CCCC3)c3sccc3n2)c1 [Example Z141, 5-(((4-(Pyrrolidine-1-carbonyl)thieno[3,2-d]pyrimidin-2-yl)amino)methyl)nicotinonitrile] | 35.53 | 7.30 to 8.00 | < 6.30 | < 6.30 | < 6.30 | 102 µL/min/1e6 cells | 38.7 µL/min/1e6 cells |
| C[C@H](Nc1nc(C(=O)N2CCC2)c2sccc2n1)c1cncc(F)c1 [Example Z164, (S)-Azetidin-1-yl(2-((1-(5-fluoropyridin-3-yl)ethyl)amino)thieno[3,2-d]pyrimidin-4-yl)methanone] | 49.96 | > 8.00 | 7.00 to 7.30 | < 6.30 | < 6.30 | 34 µL/min/1e6 cells | 13.5 µL/min/1e6 cells |
| CNc1cc2nc(N[C@@H](C)c3cncc(F)c3)nc(C(=O)N3CC[C@H](O)C3)c2s1 [Example Z197, (2-(((S)-1-(5-Fluoropyridin-3-yl)ethyl)amino)-6-(methylamino)thieno[3,2-d]pyrimidin-4-yl)((S)-3-hydroxypyrrolidin-1-yl)methanone] | 298.42 | > 8.00 | < 6.30 | < 6.30 | < 6.30 | 16.2 µL/min/1e6 cells | 3.34 µL/min/1e6 cells |
| C[C@H](Nc1nc(C(=O)NC2CC(O)C2)c2sccc2n1)c1ccccn1 (stereo partly drawn) [Example Z158, N-((1s,3R)-3-Hydroxycyclobutyl)-2-(((S)-1-(pyridin-2-yl)ethyl)amino)thieno[3,2-d]pyrimidine-4-carboxamide] | 9.39 |  |  |  |  | 22.6 µL/min/1e6 cells | 20.6 µL/min/1e6 cells |
| O=C(NC1CCC1)c1nc(NCc2cncc(F)c2)nc2ccsc12 [Example Z171, N-Cyclobutyl-2-(((5-fluoropyridin-3-yl)methyl)amino)thieno[3,2-d]pyrimidine-4-carboxamide] | 22.94 | > 8.00 | 7.00 to 7.30 | 6.30 to 7.00 | < 6.30 | 91.4 µL/min/1e6 cells | 51.4 µL/min/1e6 cells |
| O=C(NCCO)c1nc(NCc2cc(F)cc(F)c2)nc2ccsc12 [Example Z169, 2-((3,5-Difluorobenzyl)amino)-N-(2-hydroxyethyl)thieno[3,2-d]pyrimidine-4-carboxamide] | 26.40 | > 8.00 | 6.30 to 7.00 | < 6.30 | < 6.30 | 43.7 µL/min/1e6 cells | 55.6 µL/min/1e6 cells |
| CCOc1ccc(CNC(=O)c2nc(N[C@@H](C)c3ccccn3)nc3ccsc23)cn1 [Example Z170, (S)—N-((6-ethoxypyridin-3-yl)methyl)-2-((1-(pyridin-2-yl)ethyl)amino)thieno[3,2-d]pyrimidine-4-carboxamide] | 1.24 | 7.00 to 7.30 | 7.00 to 7.30 | 6.30 to 7.00 | 6.30 to 7.00 |  |  |
| COCCNC(=O)c1nc(N[C@@H](C)c2ccccn2)nc2ccsc12 [Example Z144, (S)—N-(2-Methoxyethyl)-2-((1-(pyridin-2-yl)ethyl)amino)thieno[3,2-d]pyrimidine-4-carboxamide] | 1.52 | 7.30 to 8.00 | 7.00 to 7.30 | < 6.30 | 7.00 to 7.30 |  |  |
| COc1cc(F)cc(CNc2nc(C(=O)N3CC(O)C3)c3sccc3n2)c1 [Example Z137, (2-((3-Fluoro-5-methoxybenzyl)amino)thieno[3,2-d]pyrimidin-4-yl)(3-hydroxyazetidin-1-yl)methanone] | 19.91 | 7.30 to 8.00 | 6.30 to 7.00 | < 6.30 | 7.30 to 8.00 | 66.8 µL/min/1e6 cells | 74.8 µL/min/1e6 cells |
| C[C@H](Nc1nc(C(=O)N2CC[C@H](O)C2)c2sccc2n1)c1cccc(F)c1 [Example Z129, (2-(((S)-1-(3-Fluorophenyl)ethyl)amino)thieno[3,2-d]pyrimidin-4-yl)((S)-3-hydroxypyrrolidin-1-yl)methanone] | 22.27 | 7.30 to 8.00 | 6.30 to 7.00 | < 6.30 | 7.00 to 7.30 | 43 µL/min/1e6 cells | 9.59 µL/min/1e6 cells |
| CNc1cc2nc(N[C@@H](C)c3cccnc3)nc(C(=O)N3CC[C@@H](F)C3)c2s1 [Example Z161, ((R)-3-Fluoropyrrolidin-1-yl)(6-(methylamino)-2-(((S)-1-(pyridin-3-yl)ethyl)amino)thieno[3,2-d]pyrimidin-4-yl)methanone] | 29.83 | > 8.00 | 6.30 to 7.00 | < 6.30 | 7.00 to 7.30 |  |  |
| C[C@H](Nc1nc(C(=O)NC2CCCC2)c2sccc2n1)c1ccccn1 [Example Z180, (S)—N-Cyclopentyl-2-((1-(pyridin-2-yl)ethyl)amino)thieno[3,2-d]pyrimidine-4-carboxamide] | 1.80 | 7.30 to 8.00 | 7.30 to 8.00 | 6.30 to 7.00 | 6.30 to 7.00 |  |  |
| O=C(NC1CCC1)c1nc(NCc2cc(F)cc(F)c2)nc2ccsc12 [Example Z177, N-Cyclobutyl-2-((3,5-difluorobenzyl)amino)thieno[3,2-d]pyrimidine-4-carboxamide] | 7.01 | 7.30 to 8.00 | 7.00 to 7.30 | 7.00 to 7.30 | < 6.30 |  |  |
| C[C@H](Nc1nc(C(=O)NCc2ccccc2)c2sccc2n1)c1cccnc1 [Example Z42, (S)—N-Benzyl-2-((1-(pyridin-3-yl)ethyl)amino)thieno[3,2-d]pyrimidine-4-carboxamide] | 0.20 | 6.30 to 7.00 | 7.30 to 8.00 | 6.30 to 7.00 | 7.00 to 7.30 |  |  |
